# Measurements reported in US11975051B1, “Therapeutic peptides and uses thereof” (priority 2022, dated 2024).
# Like-named read-outs stand apart in the source and are kept apart here. Where no end group is shown, it is not given here. [ ]: non-standard residue; d: D form.
# Legend:
# IL-6 = IL-6 lowering in ConA stimulated peripheral blood mononuclear cells; format: cell-based, human; conditions: 5 μg/mL ConA 72 hours, N=3
# Excerpt: (§1) The influence of proinflammatory cytokines on the immunoregulatory function of immune cells from healthy donors may be assessed using mitogen-stimulated PBMC responses, which can be measured by determining the effect of test compounds on cytokine levels after stimulation by Concanavilin A (“ConA”). See Arneth, CURRENT PROTOCOLS IN CYTOMETRY 6.28 supplement 51 (2010); A. Erhardt et al., Immunology and Liver Disease Karger (2010); W. Ge et al., INTERNATIONAL IMMUNOPHARMACOLOGY 85 (2020); S. Malchow et al., BICHIMICA ET BIOPHYSICA ACTA 1812:290-301 (2011); A. Thomazelli et al., IMMUNOPHARMACOLOGY AND IMMUNOTOXICOLOGY, 40:5:387-392 (2018); N. Umeda et al., LEUKOCYTE BIOLOGY 791-801 (2019); H. Wang et al., WORLD JOURNAL OF GASTROENTEROLOGY 119-125 (2012).
# (§2) Normal human PBMCs were stimulated with 5 μg/mL ConA for 72 hours followed by treatment with test compound, each of which are set forth in Table 6, at either 4.15 μM or 41.5 μM. Data represents mean of either TNFα or interleukin IL-6 lowering after ConA stimulation±SD. 2-way ANOVA with Dunnet's multiple comparison test; * p<0.05 (represented as +); ** p<0.01 (represented as ++); *** p<0.001 **** (represented as +++); p<0.0001 (represented as ++++); N=3 replicates. Both TNFα and IL-6 are inflammatory cytokines for which the lowering would be expected to provide therapeutic benefit for a variety of diseases. For example, TNFα is implicated in the inflammation associated with neurodegenerative and inflammatory disorders (see, e.g., G. D. Kalliolias et al., TNF biology, pathogenic mechanisms and emerging therapeutic strategies, 12(1) NATURE REVIEWS RHEUMATOLOGY 49-62 (2016)) as is […] (see, e.g., S. Kaur et al., A panoramic review of IL-6: Structure, pathophysiological roles and inhibitors, 28(5) BIOORG. MED. CHEM. 115327 (2020)).
# ALS patient-derived ASCs = assay: Stressed ALS patient-derived ASCs treated with peptides, SeaHorse analytics (Example 6); format: cell-based, human; conditions: tested at 0.5 and/or 5 mM (TP-5 0.01-100 mM), DMSO/H2O
# Excerpt: ALS patient-derived ASCs showing hypermetabolism and lipid sequestration were stressed and treated with peptides (shown below, column 2) and effect of the peptide measured with SeaHorse analytics.
# TNFα = TNFα lowering in ConA stimulated peripheral blood mononuclear cells; format: cell-based, human; conditions: 5 μg/mL ConA 72 hours, N=3
# Excerpt: as §1, §2
# patients with ALS = conditions: cited from earlier work
# ALS patients = conditions: cited from earlier work
# TDP43 model = assay: Thymalfasin in the TDP43 (Prp-TDP43^A315T) ALS mouse model; format: in vivo
# Excerpt: (§3) In mice, thymalfasin is metabolized to the active molecule thymopentin. Because mice process the pro-molecule thymalfasin into thymopentin as do humans, thymalfasin may illuminate the effects of thymopentin by increasing target engagement afforded by the pro-molecule.
# SOD1^G93A model = assay: Thymalfasin in the SOD1^G93A ALS mouse model; format: in vivo
# Excerpt: as §3
# renal dialysis patients = conditions: cited from earlier work
# [1] = also when given with other drugs; cited from earlier work
# [2] = Mouse (liver) microsomal stability; format: in vitro ADME; conditions: mouse, liver microsomes
# Mouse plasma stability = format: in vitro ADME; conditions: read-out: Mouse Plasma Stability t½
# [3] = in vivo; cited from earlier work
# [4] = Pharmacokinetics in mice dosed IV, SC and PO; format: in vivo, mouse; conditions: mouse, in vivo, mice
Compound,IL-6 lowering after ConA stimulation (significance) (IL-6; 4.15 μM test compound),IL-6 lowering after ConA stimulation (significance) (IL-6; 41.5 μM test compound),Conc. with positive effect (ALS patient-derived ASCs),TNFα lowering after ConA stimulation (significance) (TNFα; 4.15 μM test compound),TNFα lowering after ConA stimulation (significance) (TNFα; 41.5 μM test compound),also measured
1 (RKDVY) [Compound 1],+ (* p<0.05 (represented as +)),+++ (*** p<0.001 **** (represented as +++)),none,+++ (*** p<0.001 **** (represented as +++)),++++ (p<0.0001 (represented as ++++)),
Nc1nc2ccc(OC(F)(F)F)cc2s1 [Riluzole],,,,,,extension of life (patients with ALS): several months
CC1=NN(c2ccccc2)C(=O)C1 [Edavarone],,,,,,slowing of the progression of disease (ALS patients): 33%
"thymalfasin: thymosin α (Tα1), 28 amino acids, commercially available as ZADAXIN; pro-molecule metabolized to thymopentin (Ac-SDAAVDTSSEITTKDLKEKKEVVEEAEN; UniProt P06454 2-29, looked up)",,,,,,"growth and strength (based on wire hang tests) (TDP43 model; TDP-43 mouse model): improvement; disease phenotype (TDP43 model; TDP-43 mouse model, one cohort): prevented in one cohort; Iba1 and brain GFAP, measures of inflammation (TDP43 model; treated mice): Statistically-significant reduction; ubiquitin in brain tissue and spinal cord on histopathology (SOD1^G93A model): statistically-significant reduction"
Ac-Arg-Lys-Asp-Val-Tyr-NH2 (Ac-RKDVY-NH2) [Compound 3],,+++ (*** p<0.001 **** (represented as +++)),none,+ (* p<0.05 (represented as +)),++ (** p<0.01 (represented as ++)),
D-Tyr-D-Val-D-Asp-D-Lys-D-Arg-NH2 ([dY][dV][dD][dK][dR]-NH2) [Compound 7],,,0.5 mM,,,
6 (Ac-[dY][dV][dD][dK][dR]-NHMe) [Compound 6],+ (* p<0.05 (represented as +)),++++ (p<0.0001 (represented as ++++)),5 mM,++++ (p<0.0001 (represented as ++++)),++++ (p<0.0001 (represented as ++++)),
8 (Ac-[dY][dV][dD][dK][dR]-NH2) [Compound 8],,,5 mM,,,
"RKDVY [TP-5, Arg-Lys-Asp-Val-Tyr, reference compound]",,,,,,"IL-6, IL-8, TNF and CRP (renal dialysis patients): reduced; superoxide dismutase (SOD), state of oxidative stress (renal dialysis patients): increasing; safety / tolerability [1]: well tolerated; half-life ([2]; mouse liver microsomes, read-out: stability in mouse liver microsomes, half-life): 23.1 min; half-life ([2]; mouse microsomes, read-out: Mouse Microsomal Stability t½): > 60 min; half-life (Mouse plasma stability): 23.1 min; half-life of exogenous thymopentin [3]: seconds; half-life ([4]; IV, read-out: IV t½, mice): 5.58 min; bioavailability ([4]; PO, read-out: PO % F, mice): 36%; AUC(0-inf) ([4]; PO, read-out: PO AUCinf): 1270 ng·h/mL; Cmax ([4]; PO, read-out: PO Cmax): 1370 ng/mL; half-life ([4]; PO, read-out: PO t½, mice): 7.72 min; bioavailability ([4]; SC, read-out: SC % F, mice): 39%; AUC(0-inf) ([4]; SC, read-out: SC AUCinf): 126 ng·h/mL; Cmax ([4]; SC, read-out: SC Cmax): 133 ng/mL; half-life ([4]; SC, read-out: SC t½, mice): 8.92 min"
Arg-Lys-Asp-Val-Tyr-NH2 (RKDVY-NH2) [Compound 2],++ (** p<0.01 (represented as ++)),+++ (*** p<0.001 **** (represented as +++)),none,++ (** p<0.01 (represented as ++)),++ (** p<0.01 (represented as ++)),
Ac-Arg-Lys-Asp-Val-Tyr-NHMe (Ac-RKDVY-NHMe; SMILES CNC(=O)[C@H](Cc1ccc(O)cc1)NC(=O)[C@@H](NC(=O)[C@H](CC(=O)O)NC(=O)[C@H](CCCCN)NC(=O)[C@H](CCCNC(=N)N)NC(C)=O)C(C)C) [Compound 5],+ (* p<0.05 (represented as +)),++ (** p<0.01 (represented as ++)),none,,+ (* p<0.05 (represented as +)),
Arg-Lys-Asp-Val-Tyr-NHMe (RKDVY-NHMe) [Compound 4],+ (* p<0.05 (represented as +)),++ (** p<0.01 (represented as ++)),none,++ (** p<0.01 (represented as ++)),+++ (*** p<0.001 **** (represented as +++)),
